These results are taken from PMC3920478, “Small molecule-mediated refolding and activation of myosin motor function” (eLife, 2014).

In experiment [1] the test system is Dd myosin-1B, -1C, -1D, -1E motor domains. The experiment in a line: Steady-state basal and actin-activated Mg2+-ATPase (NADH-coupled assay). It is filed as biochemical, Dictyostelium discoideum. The procedure:
Rabbit fast skeletal muscle heavy meromyosin (HMM) was prepared as described by [Margossian and Lowey (1982)]. Porcine β-cardiac myosin was prepared essentially as described by [Pant et al. (2009)] and [Jacques et al. (2008)] and further purified by gel filtration. S1 and HMM fragments were produced by proteolytic digestion of the full-length proteins with 0.05 mg/ml papain (10 min, 25°C) for S1 and with 0.1 mg/ml TLCK-treated α-chymotrypsin (15 min, 25°C) for HMM. Reactions were stopped with specific protease inhibitors for papain (10 µM E−64) and chymotrypsin (10 µM chymostatin, 1 mM benzamidine). Proteolytic fragments were further purified by actin-coprecipitation. Pellets were washed twice and myosin was extracted from the pellets using ATP containing buffer. Gel filtration was used to further increase purity of myosin S1 and HMM fragments. […]
Basal and actin-activated Mg^2+-ATPase activities were measured using the NADH-coupled assay described previously ([Furch et al., 1998]) adapted for higher throughput screens for a temperature controlled plate reader (Multiscan FC, Thermo Scientific, Waltham, MA) at 25°C. […]

Experiment [2] concerns the target T1, Dd myosin-2 ΔSH3 (lacks residues 33–79) (Dictyostelium discoideum, UniProt P08799, DEL34-80).
T1 construct: Dd myosin-2 ΔSH3, a recombinant motor domain construct that lacks this subdomain; made in house
The experiment is described as above. It is filed as biochemical. From the text: Initial blind docking to homology models of the β-cardiac myosin motor domain in the post-rigor state indicated preferred binding of the drug to a region near the small N-terminal, SH3-like βbarrel subdomain. Important contacts are predicted to involve the SH3-like subdomain (residues 34–72) and two α-helices (residues 20–28 and 98–111). […] The sets of binding poses differ mainly in the orientation of the dimethylated catechol group, occupying either of the two possible branches of the Y, while the thiadiazinone moiety appears little affected and resides in the root of the Y shaped cavity (Figure 2A,B). Potential residues involved in the binding of the thiadiazinone and tetrahydroquinoline moieties of the compound include Arg23, Asp85, Lys86, Asp107, Arg108, and Ser111. The dimethylated catechol moiety is mainly bound by residues Lys34, Lys48, and Gln79, and thus, interacts with the SH3-like β-barrel.
Basal and actin-activated Mg^2+-ATPase activities were measured using the NADH-coupled assay described previously ([Furch et al., 1998]) adapted for higher throughput screens for a temperature controlled plate reader (Multiscan FC, Thermo Scientific, Waltham, MA) at 25°C. EMD 57033 was added to the reaction mixture in the absence of nucleotide and incubated before the reaction was started by the addition of ATP. Control measurements were carried out in the absence of drug, as well as in the presence of according concentrations of the non-binding (−)-enantiomer EMD 57439 to account for possible absorption effects. […] Data points are mean values from 3 to 5 independent experiments. Error bars indicate standard deviations.

Experiment [3] addresses T2, complex formed by the β-cardiac myosin motor domain with F-actin (Sus scrofa, UniProt P79293).
T2 construct: Melting curves of the complex formed by the β-cardiac myosin motor domain with F-actin; from tissue; host or cells: porcine cardiac muscle (myosin)
The experiment in a line: Melting curve by differential static light scattering. The following applies: 100 µM EMD 57033. The procedure: (§1) Circular dichroism and differential static light scattering experiments were performed to determine Tm.
Protein stability was assayed following protein aggregation associated with heat denaturation ([Senisterra et al., 2006]). Protein solutions were diluted to a concentration of 0.2 mg/ml in a buffer containing 5 mM KPi pH 7.5, 25 mM KCl and heated in steps of 0.6°C. Static light scattering was measured at each temperature step and the resulting transition curve was fitted by a Boltzmann function. The transition midpoint gives a measure for the aggregation temperature induced by protein denaturation.

In experiment [4] the target is T3, β-cardiac myosin motor domain (Sus scrofa, UniProt P79293).
T3 construct: Melting curves of the β-cardiac myosin motor domain as determined by circular dichroism spectroscopy at 222 nm; from tissue; host or cells: porcine cardiac muscle
T3 sequence (P79293 1-843 limits assumed): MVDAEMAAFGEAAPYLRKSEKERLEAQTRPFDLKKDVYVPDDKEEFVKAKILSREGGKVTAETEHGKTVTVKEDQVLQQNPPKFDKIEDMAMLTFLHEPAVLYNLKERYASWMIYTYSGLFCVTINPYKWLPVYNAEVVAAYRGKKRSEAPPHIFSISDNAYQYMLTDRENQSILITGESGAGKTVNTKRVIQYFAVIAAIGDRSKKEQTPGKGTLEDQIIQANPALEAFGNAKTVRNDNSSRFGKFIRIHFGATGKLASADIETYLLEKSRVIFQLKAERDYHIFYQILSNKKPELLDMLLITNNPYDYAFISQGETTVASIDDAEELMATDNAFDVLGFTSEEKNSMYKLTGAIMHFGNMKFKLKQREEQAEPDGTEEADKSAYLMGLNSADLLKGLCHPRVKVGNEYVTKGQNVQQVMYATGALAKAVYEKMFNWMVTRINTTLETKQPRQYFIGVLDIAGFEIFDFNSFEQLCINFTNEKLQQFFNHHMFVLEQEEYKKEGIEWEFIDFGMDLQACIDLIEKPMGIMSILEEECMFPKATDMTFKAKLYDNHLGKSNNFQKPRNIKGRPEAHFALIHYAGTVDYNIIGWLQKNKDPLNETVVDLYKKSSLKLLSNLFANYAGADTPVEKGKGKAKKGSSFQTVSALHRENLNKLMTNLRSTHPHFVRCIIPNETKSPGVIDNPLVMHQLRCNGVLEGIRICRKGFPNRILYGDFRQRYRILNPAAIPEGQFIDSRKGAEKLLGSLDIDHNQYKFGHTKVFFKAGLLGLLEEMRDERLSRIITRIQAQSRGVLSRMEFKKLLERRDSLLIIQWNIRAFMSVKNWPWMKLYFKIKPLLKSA
The experiment is described as follows: Melting temperature by circular dichroism at 222 nm. The conditions noted are these: nucleotide-free, low salt, 100 µM (saturating) EMD 57033. The arrangement: species or system Porcine. The procedure:
as §1
Protein solutions were diluted to a concentration of 0.3 mg/ml in a buffer containing 5 mM KPi pH 7.5, 15 mM KCl. Denaturation of β-cardiac myosin was measured by monitoring the temperature-dependent changes of ellipticity at 222 nm in a temperature controlled π*-180 Spectrometer equipped with a circular dichroism unit (Applied Photophysics, Leatherhead, UK). Measurements were performed in a 0.3-cm path length Quartz cuvette with a temperature gradient of 1°C min^−1. The transition midpoint of the unfolding reaction was calculated by fitting a Boltzmann function to the experimental data. Prior to measurements, the storage buffer of β-cardiac myosin that contains DTT and sucrose were exchanged using PD MiniTrap G-25 (GE Healthcare, Little Chalfont, UK) size exclusion columns equilibrated with CD Buffer (5 mM KPi pH 7.5, 15 mM KCl).
Background: CD spectra are sensitive to the conformation of chiral molecules.

In experiment [5] the target is Skeletal muscle myosin-2 (HMM). The experiment is described as follows: Steady-state basal and actin-activated Mg2+-ATPase (NADH-coupled assay). The experiment is classed as biochemical, Rabbit. The procedure: Rabbit fast skeletal muscle heavy meromyosin (HMM) was prepared as described by [Margossian and Lowey (1982)]. Porcine β-cardiac myosin was prepared essentially as described by [Pant et al. (2009)] and [Jacques et al. (2008)] and further purified by gel filtration. S1 and HMM fragments were produced by proteolytic digestion of the full-length proteins with 0.05 mg/ml papain (10 min, 25°C) for S1 and with 0.1 mg/ml TLCK-treated α-chymotrypsin (15 min, 25°C) for HMM. Reactions were stopped with specific protease inhibitors for papain (10 µM E−64) and chymotrypsin (10 µM chymostatin, 1 mM benzamidine). Proteolytic fragments were further purified by actin-coprecipitation. Pellets were washed twice and myosin was extracted from the pellets using ATP containing buffer. Gel filtration was used to further increase purity of myosin S1 and HMM fragments. His-tagged motor domain constructs of Dd myosin-2, Dd myosin-1B, Dd myosin-1C, Dd myosin-1D, Dd myosin-1E, Dd myosin-5b fused to two Dd α-actinin repeats substituting the light-chain binding domains ([Anson et al., 1996]) were expressed in Dd AX3-ORF + cells and purified by Ni^2+-chelate affinity chromatography ([Manstein and Hunt, 1995]).
Basal and actin-activated Mg^2+-ATPase activities were measured using the NADH-coupled assay described previously ([Furch et al., 1998]) adapted for higher throughput screens for a temperature controlled plate reader (Multiscan FC, Thermo Scientific, Waltham, MA) at 25°C. […] Control measurements were carried out in the absence of drug, as well as in the presence of according concentrations of the non-binding (−)-enantiomer EMD 57439 to account for possible absorption effects. […] Data points are mean values from 3 to 5 independent experiments. Error bars indicate standard deviations.

T1 sequence (P08799 other isoform, or with tags, fused parts or gaps DEL34-80): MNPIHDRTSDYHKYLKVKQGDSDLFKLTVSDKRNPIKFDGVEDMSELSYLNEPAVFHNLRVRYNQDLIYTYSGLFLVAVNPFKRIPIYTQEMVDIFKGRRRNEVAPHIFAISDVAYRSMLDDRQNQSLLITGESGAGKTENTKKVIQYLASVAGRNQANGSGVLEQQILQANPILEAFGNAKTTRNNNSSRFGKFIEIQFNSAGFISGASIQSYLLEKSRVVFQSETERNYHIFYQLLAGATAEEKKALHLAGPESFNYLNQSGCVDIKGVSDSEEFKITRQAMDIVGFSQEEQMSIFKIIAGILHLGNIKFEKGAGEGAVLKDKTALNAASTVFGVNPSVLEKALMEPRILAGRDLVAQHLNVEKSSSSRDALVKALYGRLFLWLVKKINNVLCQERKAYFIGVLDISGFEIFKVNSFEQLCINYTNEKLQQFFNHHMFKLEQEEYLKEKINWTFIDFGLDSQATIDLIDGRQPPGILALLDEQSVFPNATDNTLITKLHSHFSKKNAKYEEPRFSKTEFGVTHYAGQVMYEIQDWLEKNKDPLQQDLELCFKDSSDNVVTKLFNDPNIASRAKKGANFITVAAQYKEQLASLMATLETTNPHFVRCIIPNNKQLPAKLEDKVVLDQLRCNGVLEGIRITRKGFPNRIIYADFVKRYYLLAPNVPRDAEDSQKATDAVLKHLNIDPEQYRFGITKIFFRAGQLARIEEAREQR
T2 sequence (P79293 1-843 limits assumed, one chain of several): as the sequence (P79293 1-843 limits assumed) above

By AC50 is commonly meant the midpoint of the concentration-response curve, whichever way the signal moves. The low end stands for activity at low concentration, the high end for activity only at high concentration. In the case of `COc1ccc(C(=O)N2CCCc3cc(C4=NNC(=O)SC4C)ccc32)cc1OC` (centres unmarked) [EMD 57033], the “Normalized maximal ATPase activation (basal)” value is “no effect” in experiment [1], “no effect” in experiment [2] and 1.6 in experiment [5]. The “Normalized maximal ATPase activation (with 30 µM actin)” value in experiment [1] (30 µM actin) is reported as “no effect”; in experiment [2] (30 µM actin), “no effect”; in experiment [5] (30 µM actin), 2.2. In experiment [2] (100 µM EMD 57033), the “ATPase / chemomechanical activation of the truncated construct” value was “no significant activation”. Besides, in experiment [3], the “Tm (mid-point of transition)” value stood at 66.4 ± 3 °C. Besides, the “Tm (melting temperature)” value in experiment [4] was found to be 53.6 ± 1.9 °C. In experiment [5], the AC50 was 15.1 µM. In addition, in experiment [5], the “Activation potency relative to β-cardiac myosin (weaker)” value is “twofold”.
